Measurements reported in patent publication US10391109B2, “Use of zoledronic acid to prepare drug treating fatty liver disease” (NANJING UNIVERSITY, priority 2015, dated 2019).
Several values for one entry are separate records, joined by “and”; a condition that tells them apart may be missing. Equal values may be shown once.

Key:
[1] = Body weight, liver weight and epididymal fat pad weight in C57BL/6J mice on regular chow or high fat diet after administration; assay type: in vivo; details: 50 μg/kg
From the text: The present inventors first used model mice with foodborne non-alcoholic fatty liver, that is, high-fat diet (containing 60% fat) was used for inducing C57BL/6J mice for 12 weeks to generate fatty liver. It was found from the experimental assay that feeding of high fat diet could result in hepatic fat accumulation and degeneration in mice.
A total of forty 8-week-old C57BL/6J mice were selected, and randomly assigned to 4 groups of 10 mice. The mice were weighted respectively, fed with regular chow (containing 4% fat) and high fat diet (containing 60% fat), and housed for 12 weeks. The mice were weekly weighted and recorded, and curves were plotted. After 12 weeks, the mice with fatty liver fed with regular chow and high fat diet were administered with zoledronic acid and placebo so as to explore the function for relieving fat accumulation. Meanwhile, the resulting changes of physiological indicators for mice were observed, and different body weights and physiological indicators were recorded.
The RC group is regular chow group, the HFD group is high fat diet group, PBS is placebo, ZOL is zoledronic acid, and the dosage is 50 μg/kg.

liver triglyceride [2] = test: Measurement of TG in liver tissue, C57BL/6J mice (foodborne non-alcoholic fatty liver); assay type: in vivo; details: 50 μg/kg tail vein injection once every two days
Description: (§1) About 50 mg of the right lobe of liver in mice was taken, with an accurate weight recorded. It was washed with PBS, placed in 1 ml of a lysis solution and mechanically homogenized. The lysed tissue homogenate was divided into two portions. One portion, 500 μl, was placed in a metal bath at 70° C., heated for 10 min, and centrifuged for 5 min at 2,000×rpm. 1-10 μl was taken for a tissue TG assay with the kit. Another 500 μl was used for a protein concentration assay using the BCA method.
(§2) According to the forgoing general materials and methods, the mice in the HFD group were first administered with zoledronic acid and placebo. In this example, zoledronic acid was administered mainly by tail vein injection. The primary site of action of the drug was liver. The injection was performed once every two days. The dosage was 50 μg/kg of zoledronic acid. Tissue triglyceride level assay and H&E staining were performed for mice after administration.
(§3) The HFD group is high fat diet group, the RC group is regular chow group, PBS is placebo, ZOL is zoledronic acid, and the dosage is 50 μg/kg.

[3] = tested on: hepatic macrovesicular steatosis; test: H&E staining of liver paraffin sections, high fat diet mice; assay type: in vivo, C57BL/6J mice; details: 50 μg/kg injection
Description: (§4) An appropriate amount of the right lobe of liver tissue was taken, fixed in 4% paraformaldehyde for 24-48 h, dehyrdated with graded ethanols, cleared with xylene, infiltrated with wax, embedded in paraffin, and sectioned at a thickness of 5 μm.
(§5) The sections were de-waxed in xylene for 10 min and 5 min respectively, and then reconstituted in graded ethanol solutions. The sections were subjected to hematoxylin staining for 4 min, and then slightly washed with distilled water. The sections were blued in 0.25% NH3.H2O for 30 s, and then washed with distilled water. The sections were dehydrated with graded ethanols to 95% ethanol, stained for 2-3 s in 0.5% eosin, dehydrated in 100% ethanol, and soaked in xylene for 2 min. Finally, the sections were mounted in Rhamsan gum.
as §2

[4] = tested on: blood alanine transaminase (ALT); test: Assay for blood ALT level, C57BL/6J mice; assay type: in vivo; details: 50 μg/kg
Description: (§6) After the mice were anaesthetized, blood was collected from the eye socket veins, left at room temperature for 30 min, and centrifuged upon serum precipitation. 10 μl serum was taken for ALT and AST assays with the kit.
(§7) Similar to Example 1, according to the forgoing general materials and methods, the mice in the HFD group were first administered with zoledronic acid and placebo. The blood alanine transaminase (ALT) and aspartate transaminase (AST) levels in mice after administration were assayed.
as §3

[5] = tested on: aspartate transaminase (AST); test: Assay for blood AST level, C57BL/6J mice; assay type: in vivo; details: 50 μg/kg
Description: as §6, §7, §3

[6] = Body weight, liver weight and epididymal fat pad weight in ob/ob mice after administration; assay type: in vivo
Description: In order to further verify the lipid reducing effect of zoledronic acid, the experiments of the present invention were carried out in ob/ob mice of hereditary obese mice models with severe non-alcoholic fatty liver mainly characterized by lipid accumulation. A total of thirty 10-week-old ob/ob mice were selected, randomly assigned to 3 groups of 10 mice, and housed with regular chow (containing 4% fat). Ob/ob mice were mutant mice mainly manifested as obesity and related metabolic syndrome. […] Ob/ob mice were administered with zoledronic acid and control placebo. The resulting changes of physiological indicators in mice were observed and different body weights and physiological indicators were recorded.

liver triglyceride [7] = test: Measurement of TG in liver tissue, ob/ob mice (hereditary non-alcoholic fatty liver); assay type: in vivo
Description: as §1

hepatic lipid content = test: Quantitative analysis of hepatic lipid content in ob/ob mice (Computer Tomography); assay type: in vivo
[8] = tested on: hepatic lipid accumulation; test: H&E staining of liver paraffin sections, ob/ob mice; assay type: in vivo; details: various dosages
Description: as §4, §5
(§8) Further, the liver structure was shown by H&E staining and the lipid accumulation was shown by Oil Red staining. Injection of zoledronic acid can effectively reduce hepatic lipid accumulation in hereditary obese mice. […] In addition, the use of the zoledronic acid preparation can effectively reduce the body weight of hereditary obese mice, effectively reduce accumulation of epididymal fat pads in mice, and modulate the triglyceride content in body, achieving an effective lipid reducing, lipid lowering, and slimming effect.

[9] = tested on: hepatic lipid accumulation; test: Oil Red staining of liver cryosections, ob/ob mice; assay type: in vivo; details: various dosages
Description: An appropriate amount of the right lobe of liver was taken at the same site for laboratory mice in each group, fixed in paraformaldehyde for 2 h, dehyrdated with 30% sucrose for 8-12 h, and embedded in OCT. It was stored in a refrigerator at −70° C. It was sectioned using a Cryostat Microtome at a section thickness of 15 μm.
The cryosections were slightly dried at room temperature, slightly washed with 60% ethanol, stained in an Oil Red 0 staining solution (60% Oil Red 0 stock plus 40% distilled water) for 10-15 min, differentiated in 60% ethanol, washed, subjected to nuclear staining with hematoxylin for 1 min, washed for 1 min, suck dried, and mounted with glycerin.
as §8

blood ALT = test: Assay for blood ALT level, ob/ob mice; assay type: in vivo
Description: as §6
(§9) Similar to Example 1, according to the forgoing general materials and methods, ob/ob mice were first administered with zoledronic acid preparation and placebo at various dosages. The blood ALT and AST levels in ob/ob mice after treatment were assayed.

blood AST = test: Assay for blood AST level, ob/ob mice; assay type: in vivo
Description: as §6, §9

O=P(O)(O)C(O)(Cn1ccnc1)P(=O)(O)O [ZOL, 1-hydroxy-2-(imidazol-1-yl)-ethylidene-1,1-bisphosphonic acid]
Average body weight/g ([1]; HFD group (high fat diet)): 36.73 ± 3.74 g | Average decline of average body weight vs PBS ([1]; HFD group (high fat diet)): 16% | Average decline of average epididymal fat pad weight vs PBS ([1]; HFD group (high fat diet)): 30% | Average decline of average liver weight vs PBS ([1]; HFD group (high fat diet)): 29% | Average epididymal fat pad weight/g ([1]; HFD group (high fat diet)): 2.33 ± 0.62 g | Average liver weight/g ([1]; HFD group (high fat diet)): 1.41 ± 0.17 g | Average body weight/g ([1]; RC group (regular chow)): 26.72 ± 1.69 g | Average decline of average body weight vs PBS ([1]; RC group (regular chow)): 13% | Average decline of average epididymal fat pad weight vs PBS ([1]; RC group (regular chow)): 39% | Average decline of average liver weight vs PBS ([1]; RC group (regular chow)): 17% | Average epididymal fat pad weight/g ([1]; RC group (regular chow)): 0.46 ± 0.11 g | Average liver weight/g ([1]; RC group (regular chow)): 1.28 ± 0.08 g | Average decline of liver triglyceride vs PBS (liver triglyceride [2]; HFD group): 44.9% | Liver triglyceride (liver triglyceride [2]; HFD group): 38.18 ± 10.27 mg/g | Average decline of liver triglyceride vs PBS (liver triglyceride [2]; RC group): 12.5% | Liver triglyceride (liver triglyceride [2]; RC group): 14.33 ± 6.39 mg/g | Liver histology, H&E staining (FIG. 3) [3]: significant remission in hepatic macrovesicular steatosis | ALT IU/L ([4]; HFD group): 62.8 ± 14.08 IU/L | Average decline of ALT vs PBS ([4]; HFD group): 45.2% and 44.7% | ALT IU/L ([4]; RC group): 39.2 ± 12.09 IU/L | Average decline of ALT vs PBS ([4]; RC group): no significant changes | AST IU/L ([5]; HFD group): 76 ± 31.42 IU/L | Average decline of AST vs PBS ([5]; HFD group): 44.7% and 45.2% | AST IU/L ([5]; RC group): 52.4 ± 21.20 IU/L | Average decline of AST vs PBS ([5]; RC group): no significant changes | Average body weight/g ([6]; ZOL50 (50 μg/kg)): 50.56 ± 2.82 g | Average decline of average body weight vs PBS ([6]; ZOL50 (50 μg/kg)): 7% | Average decline of average epididymal fat pad weight vs PBS ([6]; ZOL50 (50 μg/kg)): 39% | Average decline of average liver weight vs PBS ([6]; ZOL50 (50 μg/kg)): 17% | Average epididymal fat pad weight/g ([6]; ZOL50 (50 μg/kg)): 3.628 ± 0.27 g | Average liver weight/g ([6]; ZOL50 (50 μg/kg)): 3.47 ± 0.58 g | Average body weight/g ([6]; ZOL200 (200 μg/kg)): 45.94 ± 5.16 g | Average decline of average body weight vs PBS ([6]; ZOL200 (200 μg/kg)): 15% | Average decline of average epididymal fat pad weight vs PBS ([6]; ZOL200 (200 μg/kg)): 4% | Average decline of average liver weight vs PBS ([6]; ZOL200 (200 μg/kg)): 46% | Average epididymal fat pad weight/g ([6]; ZOL200 (200 μg/kg)): 3.79 ± 0.30 g | Average liver weight/g ([6]; ZOL200 (200 μg/kg)): 2.26 ± 0.21 g | Average decline of liver triglyceride vs PBS (liver triglyceride [7]; ZOL50 (50 μg/kg)): No significant change | Liver triglyceride (liver triglyceride [7]; ZOL50 (50 μg/kg)): 140.88 ± 44.29 mg/g | Average decline of liver triglyceride vs PBS (liver triglyceride [7]; ZOL200 (200 μg/kg)): 34% | Liver triglyceride (liver triglyceride [7]; ZOL200 (200 μg/kg)): 98.49 ± 40.08 mg/g | Average decline of lipid content vs PBS (hepatic lipid content; ZOL50 (50 μg/kg)): 20.4% | Lipid content (hepatic lipid content; ZOL50 (50 μg/kg)): 592.00 ± 201.08 mg/mL | Average decline of lipid content vs PBS (hepatic lipid content; ZOL200 (200 μg/kg)): 34% | Lipid content (hepatic lipid content; ZOL200 (200 μg/kg)): 490.22 ± 211.95 mg/mL | Liver histology, H&E staining (FIG. 7) [8]: significant decrease in hepatic lipid accumulation | Liver histology, Oil Red staining (FIG. 8) [9]: significant decrease in hepatic lipid accumulation | ALT IU/L (blood ALT; ZOL50 (50 μg/kg)): 281.6 ± 142.59 IU/L | Average decline of ALT vs PBS (blood ALT; ZOL50 (50 μg/kg)): 42.5% | ALT IU/L (blood ALT; ZOL200 (200 μg/kg)): 277.4 ± 188.65 IU/L | Average decline of ALT vs PBS (blood ALT; ZOL200 (200 μg/kg)): 43.4% | AST IU/L (blood AST; ZOL50 (50 μg/kg)): 240.25 ± 70.54 IU/L | Average decline of AST vs PBS (blood AST; ZOL50 (50 μg/kg)): 30.4% | AST IU/L (blood AST; ZOL200 (200 μg/kg)): 269.75 ± 71.53 IU/L | Average decline of AST vs PBS (blood AST; ZOL200 (200 μg/kg)): 21.9%
